{"source": "paper PMC5218480", "about": "(PLoS ONE, 2017)", "system": "MV-4-11 cells", "experiment": "Gene expression microarray analysis (Affymetrix PrimeView) and GSEA", "format": "cell-based, human", "set-up": "RFU PODN (11730768_x_at) / Fold change /veh PODN (11730768_x_at) / RFU LINC00158 (11744669_a_at) / Fold change /veh LINC00158 (11744669_a_at) / RFU DUSP10 (11751237_a_at) / Fold change /veh DUSP10 (11751237_a_at) / RFU ID3 (11757404_x_at) / Fold change /veh ID3 (11757404_x_at) / RFU PLEKHG5 (11737974_s_at) / Fold change /veh PLEKHG5 (11737974_s_at) / RFU LRRC4B (11730491_at) / Fold change /veh LRRC4B (11730491_at) / RFU GIMAP4 (11747438_a_at) / Fold change /veh GIMAP4 (11747438_a_at) / RFU KRT8 (11758183_x_at) / Fold change /veh KRT8 (11758183_x_at) / RFU CNN1 (11734310_a_at) / Fold change /veh CNN1 (11734310_a_at) / RFU VPS37D (11726825_at) / Fold change /veh VPS37D (11726825_at) / RFU C10orf10 (11716522_x_at) / Fold change /veh C10orf10 (11716522_x_at) / RFU KIR2DL2 /// KIR2DL4 /// KIR2DL5A /// KIR2DL5B /// KIR2DS1 /// KIR2DS2 /// KIR2DS3 /// KIR2DS4 /// KIR3DL3 /// KIR3DL3 /// KIR3DS1 (11738374_at) / Fold change /veh KIR2DL2 /// KIR2DL4 /// KIR2DL5A /// KIR2DL5B /// KIR2DS1 /// KIR2DS2 /// KIR2DS3 /// KIR2DS4 /// KIR3DL3 /// KIR3DL3 /// KIR3DS1 (11738374_at) / RFU C1QL1 (11718748_at) / Fold change /veh C1QL1 (11718748_at) / RFU TMPRSS4 (11747572_a_at) / Fold change /veh TMPRSS4 (11747572_a_at) / RFU HAMP (11756126_x_at) / Fold change /veh HAMP (11756126_x_at) / RFU RNFT2 (11725882_a_at) / Fold change /veh RNFT2 (11725882_a_at) / RFU NR4A2 (11747474_a_at) / Fold change /veh NR4A2 (11747474_a_at) / RFU ABCC12 (11746883_a_at) / Fold change /veh ABCC12 (11746883_a_at) / RFU TMEM136 (11760407_x_at) / Fold change /veh TMEM136 (11760407_x_at) / RFU CLDN22 /// WWC2 (11732394_at) / Fold change /veh CLDN22 /// WWC2 (11732394_at) / RFU HLA-DPB1 (11760878_x_at) / Fold change /veh HLA-DPB1 (11760878_x_at) / RFU SPINT1 (11716480_a_at) / Fold change /veh SPINT1 (11716480_a_at) / RFU GAP43 (11754022_s_at) / Fold change /veh GAP43 (11754022_s_at) / RFU A4GNT (11735810_at) / Fold change /veh A4GNT (11735810_at) / RFU PRB3 (11715151_x_at) / Fold change /veh PRB3 (11715151_x_at) / RFU TUBB4B (11761932_at) / Fold change /veh TUBB4B (11761932_at) / RFU CAPN14 (11732068_a_at) / Fold change /veh CAPN14 (11732068_a_at) / RFU TMCC2 (11721928_a_at) / Fold change /veh TMCC2 (11721928_a_at) / RFU IRGQ (11745062_a_at) / Fold change /veh IRGQ (11745062_a_at) / RFU FAM174B (11720279_a_at) / Fold change /veh FAM174B (11720279_a_at) / RFU TMPRSS4 (11748680_a_at) / Fold change /veh TMPRSS4 (11748680_a_at) / RFU FAM212B (11763350_a_at) / Fold change /veh FAM212B (11763350_a_at) / RFU PLEKHG5 (11743358_a_at) / Fold change /veh PLEKHG5 (11743358_a_at) / RFU ZSCAN30 (11745921_a_at) / Fold change /veh ZSCAN30 (11745921_a_at) / RFU CMKLR1 (11741424_a_at) / Fold change /veh CMKLR1 (11741424_a_at) / RFU LOC101060620 /// MAPK8IP1 (11723275_at) / Fold change /veh LOC101060620 /// MAPK8IP1 (11723275_at) / RFU SPTSSB (11747773_x_at) / Fold change /veh SPTSSB (11747773_x_at) / RFU PRSS12 (11739890_at) / Fold change /veh PRSS12 (11739890_at) / RFU BIN1 (11741810_x_at) / Fold change /veh BIN1 (11741810_x_at) / RFU WNT11 (11732464_a_at) / Fold change /veh WNT11 (11732464_a_at) / RFU C10orf10 (11716521_a_at) / Fold change /veh C10orf10 (11716521_a_at) / RFU C5orf56 (11738089_at) / Fold change /veh C5orf56 (11738089_at) / RFU CYB561 (11721691_x_at) / Fold change /veh CYB561 (11721691_x_at) / RFU ANKRD19P (11752326_a_at) / Fold change /veh ANKRD19P (11752326_a_at) / RFU OR2T12 /// OR2T33 /// OR2T8 (11738714_s_at) / Fold change /veh OR2T12 /// OR2T33 /// OR2T8 (11738714_s_at) / RFU VCAN (11748164_a_at) / Fold change /veh VCAN (11748164_a_at) / RFU JSRP1 (11732532_at) / Fold change /veh JSRP1 (11732532_at) / RFU KRTAP10-11 (11738290_x_at) / Fold change /veh KRTAP10-11 (11738290_x_at) / RFU MYO3A (11730013_a_at) / Fold change /veh MYO3A (11730013_a_at) / RFU EBF3 (11725865_a_at) / Fold change /veh EBF3 (11725865_a_at) / RFU CAMK2N1 (11719241_x_at) / Fold change /veh CAMK2N1 (11719241_x_at) / RFU C5orf56 (11738088_a_at) / Fold change /veh C5orf56 (11738088_a_at) / RFU OLFML3 (11715873_a_at) / Fold change /veh OLFML3 (11715873_a_at) / RFU LOC100653217 /// NTM (11731650_a_at) / Fold change /veh LOC100653217 /// NTM (11731650_a_at) / RFU MAPK11 (11762145_a_at) / Fold change /veh MAPK11 (11762145_a_at) / RFU FIZ1 (11724087_x_at) / Fold change /veh FIZ1 (11724087_x_at) / RFU OASL (11726364_x_at) / Fold change /veh OASL (11726364_x_at) / RFU SOX15 (11748057_x_at) / Fold change /veh SOX15 (11748057_x_at) / RFU CD79A (11719716_a_at) / Fold change /veh CD79A (11719716_a_at) / RFU HIST1H1D (11736915_at) / Fold change /veh HIST1H1D (11736915_at) / RFU CASKIN2 (11723855_a_at) / Fold change /veh CASKIN2 (11723855_a_at) / RFU LOC730098 (11760151_x_at) / Fold change /veh LOC730098 (11760151_x_at) / RFU OR4N2 (11742367_at) / Fold change /veh OR4N2 (11742367_at) / RFU PRRT2 (11749266_a_at) / Fold change /veh PRRT2 (11749266_a_at) / RFU SNX32 (11753110_a_at) / Fold change /veh SNX32 (11753110_a_at) / RFU CDHR5 (11726645_a_at) / Fold change /veh CDHR5 (11726645_a_at) / RFU RCAN1 (11760418_a_at) / Fold change /veh RCAN1 (11760418_a_at) / RFU FAM167A (11723789_a_at) / Fold change /veh FAM167A (11723789_a_at) / RFU FAM26E (11764081_at) / Fold change /veh FAM26E (11764081_at) / RFU ISYNA1 (11749810_s_at) / Fold change /veh ISYNA1 (11749810_s_at) / RFU ACY1 (11761880_at) / Fold change /veh ACY1 (11761880_at) / RFU 11764098_at / Fold change /veh 11764098_at / RFU SAMD14 (11745864_x_at) / Fold change /veh SAMD14 (11745864_x_at) / RFU NPB (11741838_a_at) / Fold change /veh NPB (11741838_a_at) / RFU TMPRSS6 (11731388_a_at) / Fold change /veh TMPRSS6 (11731388_a_at) / RFU KRTAP10-2 (11738614_at) / Fold change /veh KRTAP10-2 (11738614_at) / RFU ARHGAP8 /// PRR5-ARHGAP8 (11727945_x_at) / Fold change /veh ARHGAP8 /// PRR5-ARHGAP8 (11727945_x_at) / RFU KRTAP5-7 /// NADSYN1 (11734609_at) / Fold change /veh KRTAP5-7 /// NADSYN1 (11734609_at) / RFU RASL12 (11751679_a_at) / Fold change /veh RASL12 (11751679_a_at) / RFU CDKN2B (11736163_a_at) / Fold change /veh CDKN2B (11736163_a_at) / RFU PRF1 (11729649_at) / Fold change /veh PRF1 (11729649_at) / RFU, ZNF638 /// ZNF638-IT1 / Fold change vs veh, ZNF638 /// ZNF638-IT1 / RFU, PANK3 / Fold change vs veh, PANK3 / RFU, SH3YL1 / Fold change vs veh, SH3YL1 / RFU, ZEB2 / Fold change vs veh, ZEB2 / RFU, NRIP1 / Fold change vs veh, NRIP1 / RFU, PTTG1IP / Fold change vs veh, PTTG1IP / RFU, CAPN2 / Fold change vs veh, CAPN2 / RFU, MED14 / Fold change vs veh, MED14 / RFU, SNORA58 / Fold change vs veh, SNORA58 / RFU, C1orf63 / Fold change vs veh, C1orf63 / RFU, LRRFIP1 / Fold change vs veh, LRRFIP1 / RFU, NDUFAF7 / Fold change vs veh, NDUFAF7 / RFU, SLC12A2 / Fold change vs veh, SLC12A2 / RFU, IBTK / Fold change vs veh, IBTK / RFU, ESF1 / Fold change vs veh, ESF1 / Fold change vs veh, TMEM50B / RFU, TAOK1 / Fold change vs veh, TAOK1 / RFU, ACBD3 / Fold change vs veh, ACBD3 / RFU, TMA16 / Fold change vs veh, TMA16 / RFU, RWDD3 / Fold change vs veh, RWDD3 / RFU, BCAT1 / Fold change vs veh, BCAT1 / RFU, EDEM3 / Fold change vs veh, EDEM3 / RFU, TMEM33 / Fold change vs veh, TMEM33 / RFU, WDR75 / Fold change vs veh, WDR75 / RFU, AHCTF1 / Fold change vs veh, AHCTF1 / RFU, TFRC / Fold change vs veh, TFRC / RFU, ZDHHC17 / Fold change vs veh, ZDHHC17 / RFU, NOM1 / Fold change vs veh, NOM1 / RFU, ARL8B / Fold change vs veh, ARL8B / RFU, ZBTB11 / Fold change vs veh, ZBTB11 / RFU, TAMM41 / Fold change vs veh, TAMM41 / RFU, KIAA1704 /// LOC100996395 / Fold change vs veh, KIAA1704 /// LOC100996395 / RFU, ING1 / Fold change vs veh, ING1 / RFU, TRMT61B / Fold change vs veh, TRMT61B / RFU, FUBP3 / Fold change vs veh, FUBP3 / RFU, TP53 / Fold change vs veh, TP53 / RFU, TNKS2 / Fold change vs veh, TNKS2 / RFU, ZFP14 / Fold change vs veh, ZFP14 / RFU, ACTR2 / Fold change vs veh, ACTR2 / RFU, PPP3R1 / Fold change vs veh, PPP3R1 / RFU, PIK3R1 / Fold change vs veh, PIK3R1 / RFU, HNRNPA1 / Fold change vs veh, HNRNPA1 / RFU, RNF170 / Fold change vs veh, RNF170 / RFU, ZNF28 / Fold change vs veh, ZNF28 / RFU, RNGTT / Fold change vs veh, RNGTT / RFU, OGT / Fold change vs veh, OGT / RFU, BRD1 / Fold change vs veh, BRD1 / RFU, MARS / Fold change vs veh, MARS / RFU, ZNF655 / Fold change vs veh, ZNF655 / RFU, FAHD1 / Fold change vs veh, FAHD1 / RFU, BDP1 / Fold change vs veh, BDP1 / RFU, LRRCC1 / Fold change vs veh, LRRCC1 / RFU, ARID1A / Fold change vs veh, ARID1A / RFU, ZNF146 / Fold change vs veh, ZNF146 / RFU, ZNF330 / Fold change vs veh, ZNF330 / RFU, GPN3 / Fold change vs veh, GPN3 / RFU, C9orf123 / Fold change vs veh, C9orf123 / RFU, N4BP2L2 / Fold change vs veh, N4BP2L2 / RFU, ARFIP1 / Fold change vs veh, ARFIP1 / RFU, FAM179B / Fold change vs veh, FAM179B / RFU, BCL10 / Fold change vs veh, BCL10 / RFU, UHRF1BP1L / Fold change vs veh, UHRF1BP1L / RFU, BET1 / Fold change vs veh, BET1 / RFU, CNOT2 / Fold change vs veh, CNOT2 / RFU, ZNF268 / Fold change vs veh, ZNF268 / Fold change vs veh, ZNF507 / RFU, DGCR2 / Fold change vs veh, DGCR2 / RFU, WDSUB1 / Fold change vs veh, WDSUB1 / Fold change vs veh, HSP90B1 /// MIR3652 / RFU, ADSS / Fold change vs veh, ADSS / RFU, GK / Fold change vs veh, GK / RFU, ZNF148 / Fold change vs veh, ZNF148 / RFU, TAF9 / Fold change vs veh, TAF9 / RFU, SLC1A5 / Fold change vs veh, SLC1A5 / RFU, SLMO2 / Fold change vs veh, SLMO2 / RFU, ABCC4 / Fold change vs veh, ABCC4 / RFU, LOC101060439 /// RAP1B / Fold change vs veh, LOC101060439 /// RAP1B / RFU, RFX7 / Fold change vs veh, RFX7 / RFU, GTPBP10 / Fold change vs veh, GTPBP10 / RFU, CNEP1R1 / Fold change vs veh, CNEP1R1 / RFU, BIVM-ERCC5 /// ERCC5 / Fold change vs veh, BIVM-ERCC5 /// ERCC5 / RFU, ILF3 / Fold change vs veh, ILF3 / RFU 11762660_at / Fold change /veh 11762660_at / RFU VCAN (11757783_s_at) / Fold change /veh VCAN (11757783_s_at) / RFU DDX43 (11728927_at) / Fold change /veh DDX43 (11728927_at) / RFU KRT8 (11758188_x_at) / Fold change /veh KRT8 (11758188_x_at) / RFU NKD1 (11759106_at) / Fold change /veh NKD1 (11759106_at) / RFU SRD5A1 (11742802_a_at) / Fold change /veh SRD5A1 (11742802_a_at) / RFU TPSAB1 /// TPSB2 (11721975_s_at) / Fold change /veh TPSAB1 /// TPSB2 (11721975_s_at) / RFU GSTM3 (11746129_a_at) / Fold change /veh GSTM3 (11746129_a_at) / RFU IL23R (11737362_x_at) / Fold change /veh IL23R (11737362_x_at) / RFU TMEM51 (11727254_a_at) / Fold change /veh TMEM51 (11727254_a_at) / RFU PIWIL2 (11732686_x_at) / Fold change /veh PIWIL2 (11732686_x_at) / RFU ORM1 (11744905_x_at) / Fold change /veh ORM1 (11744905_x_at) / RFU CCDC152 (11743942_at) / Fold change /veh CCDC152 (11743942_at) / RFU ECM1 (11717891_a_at) / Fold change /veh ECM1 (11717891_a_at) / RFU IL23R (11748794_a_at) / Fold change /veh IL23R (11748794_a_at) / RFU TNFAIP8L3 (11732012_x_at) / Fold change /veh TNFAIP8L3 (11732012_x_at) / RFU MBOAT4 (11741988_at) / Fold change /veh MBOAT4 (11741988_at) / RFU 11764193_at / Fold change /veh 11764193_at / RFU TMEM53 (11763286_at) / Fold change /veh TMEM53 (11763286_at) / RFU MAGEB2 (11727129_at) / Fold change /veh MAGEB2 (11727129_at) / RFU TMEM200A (11744735_a_at) / Fold change /veh TMEM200A (11744735_a_at) / RFU CCDC152 (11751479_a_at) / Fold change /veh CCDC152 (11751479_a_at) / RFU FAM211A (11726209_a_at) / Fold change /veh FAM211A (11726209_a_at) / RFU RGS16 (11746705_a_at) / Fold change /veh RGS16 (11746705_a_at) / RFU VCAN (11755009_s_at) / Fold change /veh VCAN (11755009_s_at) / RFU RHOB (11743442_s_at) / Fold change /veh RHOB (11743442_s_at) / RFU RGS16 (11720943_a_at) / Fold change /veh RGS16 (11720943_a_at) / RFU RGS16 (11720944_at) / Fold change /veh RGS16 (11720944_at) / RFU, VPS4B / Fold change vs veh, VPS4B / RFU, CREB1 / Fold change vs veh, CREB1 / RFU, DNAJC13 / Fold change vs veh, DNAJC13 / RFU, GNAQ / Fold change vs veh, GNAQ / RFU, CDK5R1 / Fold change vs veh, CDK5R1 / RFU, ZRANB3 / Fold change vs veh, ZRANB3 / RFU, CUL4A / Fold change vs veh, CUL4A / RFU, CCNY / Fold change vs veh, CCNY / RFU, UFL1 / Fold change vs veh, UFL1 / RFU, COG3 / Fold change vs veh, COG3 / RFU, DIAPH2 / Fold change vs veh, DIAPH2 / RFU, SKA2 / Fold change vs veh, SKA2 / RFU, AFF3 / Fold change vs veh, AFF3 / RFU, LMF1 / Fold change vs veh, LMF1 / RFU, IPO11 / Fold change vs veh, IPO11 / RFU, DFFB / Fold change vs veh, DFFB / RFU, FOXP1 / Fold change vs veh, FOXP1 / RFU, CARD8 / Fold change vs veh, CARD8 / RFU, STRN3 / Fold change vs veh, STRN3 / RFU, ADK / Fold change vs veh, ADK / RFU, RASSF2 / Fold change vs veh, RASSF2 / RFU, WIPF1 / Fold change vs veh, WIPF1 / RFU, LARP1B / Fold change vs veh, LARP1B / RFU, RASA1 / Fold change vs veh, RASA1 / RFU, RB1 / Fold change vs veh, RB1 / RFU, PPFIA1 / Fold change vs veh, PPFIA1 / RFU, MAT2A / Fold change vs veh, MAT2A / RFU, CCT5 / Fold change vs veh, CCT5 / RFU, WDR92 / Fold change vs veh, WDR92 / RFU, CUX1 / Fold change vs veh, CUX1 / RFU, TTC7A / Fold change vs veh, TTC7A / RFU, TMEM135 / Fold change vs veh, TMEM135 / RFU, DEPTOR / Fold change vs veh, DEPTOR / RFU, CPM / Fold change vs veh, CPM / RFU, DNAJB6 / Fold change vs veh, DNAJB6 / RFU, CACNA2D3 / Fold change vs veh, CACNA2D3 / RFU, DTX4 / Fold change vs veh, DTX4 / RFU, TFCP2 / Fold change vs veh, TFCP2 / RFU, GMCL1 /// GMCL1P1 / Fold change vs veh, GMCL1 /// GMCL1P1 / RFU, AEBP2 / Fold change vs veh, AEBP2 / RFU, SNHG1 /// SNORD22 /// SNORD25 /// SNORD26 /// SNORD27 /// SNORD28 /// SNORD29 /// SNORD31 / Fold change vs veh, SNHG1 /// SNORD22 /// SNORD25 /// SNORD26 /// SNORD27 /// SNORD28 /// SNORD29 /// SNORD31 / Fold change (Aza/veh), C12orf56 (ProbeSet 11735607_a_at) / Fold change (ACY-1035/veh), C12orf56 (ProbeSet 11735607_a_at) / Fold change (Aza/veh), FGFR1OP (ProbeSet 11751329_s_at) / Fold change (ACY-1035/veh), FGFR1OP (ProbeSet 11751329_s_at) / Fold change (Aza/veh), VPS36 (ProbeSet 11739960_a_at) / Fold change (ACY-1035/veh), VPS36 (ProbeSet 11739960_a_at) / RFU SYPL1 (11715823_x_at) / Fold change /veh SYPL1 (11715823_x_at) / RFU IGFBP7 (11715501_s_at) / Fold change /veh IGFBP7 (11715501_s_at) / RFU REEP3 (11722064_at) / Fold change /veh REEP3 (11722064_at) / RFU IGLL1 (11728026_x_at) / Fold change /veh IGLL1 (11728026_x_at): dose or concentration left out as unconfirmed", "conditions": "MV-4-11 cells, 48 hours"}
{"smiles": "Nc1ccc(-c2cccs2)cc1NC(=O)c1ccc2c(c1)cc(C1CC1)n2CCN1CCOCC1", "note": "[ACY-1035]", "values": [{"measurement": "Fold change /veh VPS37D (11726825_at)", "result": 1.08}]}
